The target of assay [1] is T1, Type-1 angiotensin II receptor (Homo sapiens, UniProt P30556).
T1 sequence (P30556 whole entry): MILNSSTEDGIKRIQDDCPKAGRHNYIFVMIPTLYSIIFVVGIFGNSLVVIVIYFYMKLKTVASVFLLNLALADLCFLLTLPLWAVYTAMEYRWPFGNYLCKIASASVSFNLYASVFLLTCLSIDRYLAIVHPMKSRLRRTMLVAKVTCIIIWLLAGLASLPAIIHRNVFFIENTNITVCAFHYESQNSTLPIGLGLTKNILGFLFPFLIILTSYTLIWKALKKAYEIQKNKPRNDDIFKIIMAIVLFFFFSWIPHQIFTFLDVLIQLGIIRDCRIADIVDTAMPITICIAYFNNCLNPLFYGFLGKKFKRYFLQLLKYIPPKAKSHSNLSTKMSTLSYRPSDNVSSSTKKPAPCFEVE
The assay is described as follows: AT1 receptor antagonists, dose response, selectivity assay for APJ receptor antagonist project, cell-based, uHTS hits (AID 463214).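 Further: antagonist potency against angiotensin II stimulated AT1 response.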 Format: functional.

The next assay concerns the target Beta-galactosidase (Escherichia coli, UniProt Q8VNN2). The assay is described as follows: PubChem AID 485352. The class given is functional.
The target of assay [2] is T2, Probable nicotinate-nucleotide adenylyltransferase (Staphylococcus aureus (strain N315), UniProt P65502). The class given is functional, Staphylococcus aureus subsp. aureus N315. To be noted: read-out: IC50_Mean.
T2 sequence (P65502 whole entry): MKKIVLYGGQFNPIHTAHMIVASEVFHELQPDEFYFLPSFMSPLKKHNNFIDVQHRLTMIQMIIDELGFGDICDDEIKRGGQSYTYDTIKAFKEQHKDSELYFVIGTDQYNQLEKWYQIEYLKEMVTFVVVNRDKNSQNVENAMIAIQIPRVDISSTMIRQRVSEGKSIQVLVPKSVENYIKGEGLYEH
The target of assay [3] is T2, Probable nicotinate-nucleotide adenylyltransferase. Format: functional, Staphylococcus aureus subsp. aureus N315.
Assay [4] concerns the target 26S proteasome non-ATPase regulatory subunit 14 (Homo sapiens, UniProt O00487). The assay is described as follows: inhibition of proteasome subunit RPN11 – biochemical, fluorescence polarization, uHTS hits, confirmation (AID 602368). Format: functional.
The target of assay [5] is 72 kDa type IV collagenase (Homo sapiens, UniProt P08253). The assay is described as follows: Dose Response validation of uHTS RPN11 inhibitor hits using a MMP-2 Fluorescence assay. The class given is functional.
Sequence of 72 kDa type IV collagenase (P08253 whole entry): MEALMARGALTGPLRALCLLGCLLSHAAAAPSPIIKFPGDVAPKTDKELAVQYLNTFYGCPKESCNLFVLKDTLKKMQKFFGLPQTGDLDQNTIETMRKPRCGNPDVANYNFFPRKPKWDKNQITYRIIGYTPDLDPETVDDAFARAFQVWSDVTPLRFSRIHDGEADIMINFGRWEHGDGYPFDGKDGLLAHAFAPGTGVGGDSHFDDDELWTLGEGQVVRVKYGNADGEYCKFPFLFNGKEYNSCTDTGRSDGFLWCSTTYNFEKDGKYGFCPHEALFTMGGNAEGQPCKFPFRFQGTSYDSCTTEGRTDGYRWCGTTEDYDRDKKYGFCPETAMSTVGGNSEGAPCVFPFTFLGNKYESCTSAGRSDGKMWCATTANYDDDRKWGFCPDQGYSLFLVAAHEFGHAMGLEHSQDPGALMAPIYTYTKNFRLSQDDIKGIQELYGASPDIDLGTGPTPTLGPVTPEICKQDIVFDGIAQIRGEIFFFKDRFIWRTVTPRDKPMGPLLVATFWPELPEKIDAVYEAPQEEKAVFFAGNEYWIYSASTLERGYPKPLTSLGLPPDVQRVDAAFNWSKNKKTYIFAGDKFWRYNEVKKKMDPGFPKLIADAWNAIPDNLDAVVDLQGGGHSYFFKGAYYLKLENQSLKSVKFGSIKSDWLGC
For the next assay, the target named is Prothrombin (Bos taurus, UniProt P00735). The assay is described as follows: thrombin inhibition, dose response, biochemical, fluorescence polarization, uHTS hits (AID 602369). The class given is functional.
Assay [6] has as its target Heat shock protein HSP 90-alpha (Homo sapiens, UniProt P07900). The class given is functional, organism-based.
Assay [7] deals with T3, Methionyl-tRNA synthetase, putative (Trypanosoma brucei brucei, UniProt Q38C91).
T3 sequence (Q38C91 whole entry): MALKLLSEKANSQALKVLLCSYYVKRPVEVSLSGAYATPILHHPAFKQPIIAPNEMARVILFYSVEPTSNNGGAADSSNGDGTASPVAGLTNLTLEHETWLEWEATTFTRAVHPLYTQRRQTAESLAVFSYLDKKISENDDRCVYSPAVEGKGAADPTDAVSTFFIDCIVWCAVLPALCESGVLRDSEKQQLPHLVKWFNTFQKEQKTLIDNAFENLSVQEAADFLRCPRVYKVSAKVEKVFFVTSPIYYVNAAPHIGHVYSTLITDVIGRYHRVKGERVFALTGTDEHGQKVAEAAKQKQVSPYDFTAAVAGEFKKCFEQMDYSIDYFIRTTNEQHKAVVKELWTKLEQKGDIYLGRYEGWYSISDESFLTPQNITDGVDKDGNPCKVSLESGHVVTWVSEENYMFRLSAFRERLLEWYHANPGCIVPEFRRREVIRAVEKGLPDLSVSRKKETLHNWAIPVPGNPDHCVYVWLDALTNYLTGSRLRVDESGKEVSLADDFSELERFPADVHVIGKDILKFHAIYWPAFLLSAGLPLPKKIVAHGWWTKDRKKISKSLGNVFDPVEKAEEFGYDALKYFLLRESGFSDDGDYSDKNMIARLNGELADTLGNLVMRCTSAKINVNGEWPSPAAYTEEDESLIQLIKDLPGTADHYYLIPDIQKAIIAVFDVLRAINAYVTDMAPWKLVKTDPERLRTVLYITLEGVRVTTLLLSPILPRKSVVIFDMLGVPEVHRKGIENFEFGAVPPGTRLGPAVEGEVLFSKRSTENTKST
The class given is functional, Trypanosoma brucei brucei strain 927/4 GUTat10.1.

The nature of assay [8]: Counterscreen for inhibitors of Trypanosoma brucei methionyl tRNA synthetase (MetRS): Luminescence-based cell-based high throughput dose response assay to identify compounds that are cytotoxic to Jurkat human T lymphocyte cells. Format: functional. A general note: A counterscreen serves to expose hits that act by an unwanted route or on another target.
Assay [9] deals with T3, Methionyl-tRNA synthetase, putative. The class given is functional, Trypanosoma brucei brucei strain 927/4 GUTat10.1. The source holds these as a separate data set.
A further assay has as its target Steroidogenic factor 1 (Homo sapiens, UniProt Q13285). Description: Counterscreen for inverse agonists of the liver receptor homolog-1 (LRH-1; NR5A2): Luminescence-based cell-based high throughput dose response assay to identify inverse agonists of the Steroidogenic Factor 1 Nuclear Receptor (SF1; NR5A1). Format: functional.
Assay [10] deals with Nuclear receptor subfamily 5 group A member 2 (Homo sapiens, UniProt O00482). Format: functional, cell-based.
Sequence of Nuclear receptor subfamily 5 group A member 2 (O00482 whole entry): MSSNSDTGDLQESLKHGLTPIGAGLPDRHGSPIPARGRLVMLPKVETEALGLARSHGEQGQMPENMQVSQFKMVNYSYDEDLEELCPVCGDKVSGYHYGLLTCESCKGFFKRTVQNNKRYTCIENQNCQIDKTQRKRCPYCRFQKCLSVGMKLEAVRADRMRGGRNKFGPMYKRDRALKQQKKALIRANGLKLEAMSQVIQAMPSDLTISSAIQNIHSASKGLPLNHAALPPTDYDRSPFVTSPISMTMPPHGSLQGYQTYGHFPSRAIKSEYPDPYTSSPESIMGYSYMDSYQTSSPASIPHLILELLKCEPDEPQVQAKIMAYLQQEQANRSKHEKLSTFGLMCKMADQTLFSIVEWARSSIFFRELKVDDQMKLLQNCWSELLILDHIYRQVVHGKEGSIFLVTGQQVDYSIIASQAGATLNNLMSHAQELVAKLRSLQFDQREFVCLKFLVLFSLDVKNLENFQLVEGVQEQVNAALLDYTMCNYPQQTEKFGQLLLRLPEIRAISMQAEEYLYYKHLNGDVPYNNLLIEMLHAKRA
Assay [11] in a line: StAR promoter reporter inhibition counter-screen, dose response, counter-screen for LRH-1 inverse agonist project, cell-based, luminescence, luciferase reporter (AID 651969). The class given is functional.
For assay [12], the system named is Streptococcus sp. 'group A'. Description: growth inhibition of control SK(-) GAS strain, dose response, counter-screen for streptokinase expression inhibitor project, luminescence, kanamycin, BacTiterGlo, confirmation (AID 1900). Format: functional, organism-based.
For the next assay, the system named is Streptococcus. Description: Group A Streptococcus viability loss, dose response, counter-screen for streptokinase expression inhibitor project, luminescence, BacTiterGlo (AID 1915).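 Further: potency for reduction of bacterial viability or growth.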 Format: functional, organism-based.
The target of a further assay is Cytochrome P450 2C9 (Homo sapiens, UniProt P11712).
Sequence of Cytochrome P450 2C9 (P11712 whole entry, the tested form may be a part): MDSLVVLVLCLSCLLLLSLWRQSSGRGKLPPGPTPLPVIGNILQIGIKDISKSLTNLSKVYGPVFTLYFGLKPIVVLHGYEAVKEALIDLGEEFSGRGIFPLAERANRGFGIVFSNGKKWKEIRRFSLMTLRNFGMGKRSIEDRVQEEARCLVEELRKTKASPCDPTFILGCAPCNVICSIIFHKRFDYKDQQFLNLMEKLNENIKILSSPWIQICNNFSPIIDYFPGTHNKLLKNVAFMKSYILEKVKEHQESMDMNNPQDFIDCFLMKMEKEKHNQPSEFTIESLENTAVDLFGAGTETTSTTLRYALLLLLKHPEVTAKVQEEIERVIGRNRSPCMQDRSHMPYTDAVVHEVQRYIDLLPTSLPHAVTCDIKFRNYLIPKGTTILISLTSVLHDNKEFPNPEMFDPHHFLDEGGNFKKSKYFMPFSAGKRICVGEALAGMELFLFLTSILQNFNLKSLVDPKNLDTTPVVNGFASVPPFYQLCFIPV
A short description of assay [13]: inhibitors of clade B AD8 Env fusion, dose response, cell-based, cherry-pick (AID 652062).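 Further: luciferase signal from cell-cell fusion driven by HIV-1 clade B AD8 Env; potency is for inhibitors of fusion seen as a drop in luminescence.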 The class given is functional.
A short description of assay [14]: CEM21 lymphoblast cell cytotoxicity, dose response, cytotoxicity control for viral fusion inhibitor project, CellTiter-Glo luminescence, cherry-picked (AID 652042).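 Further: potency for signal decrease meaning cytotoxicity.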 Format: functional, cell-based. (ATP-based viability assays read luminescence as a measure of living cells.)
A short description of assay [15]: ZM109 Env clade C HIV-1 fusion inhibitors, dose response, HeLa effector, CEM target cells, luciferase, cherry-pick (AID 652058). The class given is functional, cell-based.
Assay [16] in a line: off-target signal loss in HeLa-CEM21 co-culture – HeLa F-luc CTL cells, cherry-picked, counter-screen for HIV-1 Env fusion inhibitor project, dose response (AID 652040).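 Further: potency for signal decrease marking cytotoxic or nonspecific inhibition.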 The class given is functional, cell-based.
Assay [17] can be described thus: inhibitors of HIV Env-driven cell fusion, dose response, cherry-pick (AID 652057). The class given is functional, cell-based.
Assay [18] is described as follows: ARNT/TACC3 interaction disruptors, potency, confirmation, biochemical, AlphaScreen, cherry-picked samples (AID 651703).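 Further: His-tagged ARNT PAS-B domain paired with GST-TACC3 E629A dimer coactivator fragment; potency of inhibitors that break up the complex and lower AlphaScreen signal.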 Format: functional, Homo sapiens. Background: In Alpha technology, singlet oxygen from a donor bead excites a nearby acceptor bead.
For a further assay, the system named is INS1. The assay is described as follows: beta cell apoptosis inhibitors, cytokine rescue, dose response, luminescence, retest (AID 449756).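 Further: cell death triggered by IL-1 beta plus TNF-alpha plus IFN-gamma mixture; protective hits raise ATP signal compared with cytokine alone wells.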 Format: functional, cell-based. To be noted: Rattus norvegicus.

Molecules are shown by their SMILES. Activity calls are given as the source filed them.
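Wherever IC50 Mean is given: confirmatory dose-response retesting of NadD inhibitor hits first found in an ultra-high-throughput screen.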

Sequence of 26S proteasome non-ATPase regulatory subunit 14 (O00487 whole entry): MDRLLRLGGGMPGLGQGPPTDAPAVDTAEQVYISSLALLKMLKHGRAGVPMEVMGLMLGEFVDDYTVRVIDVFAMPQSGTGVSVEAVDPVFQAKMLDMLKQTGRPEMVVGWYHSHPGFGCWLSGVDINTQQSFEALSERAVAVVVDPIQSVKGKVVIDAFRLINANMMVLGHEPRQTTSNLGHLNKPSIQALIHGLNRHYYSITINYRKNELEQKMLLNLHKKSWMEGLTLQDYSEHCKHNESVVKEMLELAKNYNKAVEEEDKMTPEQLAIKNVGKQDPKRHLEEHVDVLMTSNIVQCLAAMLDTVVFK
Sequence of Beta-galactosidase (Q8VNN2 whole entry): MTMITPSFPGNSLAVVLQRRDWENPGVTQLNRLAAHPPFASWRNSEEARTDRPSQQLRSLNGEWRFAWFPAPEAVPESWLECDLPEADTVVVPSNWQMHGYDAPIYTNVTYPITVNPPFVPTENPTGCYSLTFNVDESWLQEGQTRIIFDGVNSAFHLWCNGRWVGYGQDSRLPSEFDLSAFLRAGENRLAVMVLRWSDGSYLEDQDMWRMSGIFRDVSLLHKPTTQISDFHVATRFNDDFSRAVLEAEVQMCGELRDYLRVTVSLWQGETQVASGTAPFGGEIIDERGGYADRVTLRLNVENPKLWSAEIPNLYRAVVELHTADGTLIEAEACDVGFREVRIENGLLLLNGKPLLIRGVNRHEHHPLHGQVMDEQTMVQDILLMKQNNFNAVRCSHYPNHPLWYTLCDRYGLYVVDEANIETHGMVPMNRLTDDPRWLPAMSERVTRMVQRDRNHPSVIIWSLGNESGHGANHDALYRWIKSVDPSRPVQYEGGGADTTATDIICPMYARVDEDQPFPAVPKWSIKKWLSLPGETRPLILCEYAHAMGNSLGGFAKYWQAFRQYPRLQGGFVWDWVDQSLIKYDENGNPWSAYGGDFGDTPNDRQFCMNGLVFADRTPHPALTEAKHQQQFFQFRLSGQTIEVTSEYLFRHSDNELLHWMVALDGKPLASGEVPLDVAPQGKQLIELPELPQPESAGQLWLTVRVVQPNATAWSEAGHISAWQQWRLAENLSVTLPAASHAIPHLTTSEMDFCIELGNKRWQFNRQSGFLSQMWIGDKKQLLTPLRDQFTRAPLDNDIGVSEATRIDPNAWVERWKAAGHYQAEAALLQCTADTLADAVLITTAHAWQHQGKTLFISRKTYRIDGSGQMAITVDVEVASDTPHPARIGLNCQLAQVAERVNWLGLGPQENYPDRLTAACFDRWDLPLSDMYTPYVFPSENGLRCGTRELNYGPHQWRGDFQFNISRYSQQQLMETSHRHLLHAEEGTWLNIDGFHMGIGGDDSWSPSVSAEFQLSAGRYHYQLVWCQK
Sequence of Steroidogenic factor 1 (Q13285 whole entry): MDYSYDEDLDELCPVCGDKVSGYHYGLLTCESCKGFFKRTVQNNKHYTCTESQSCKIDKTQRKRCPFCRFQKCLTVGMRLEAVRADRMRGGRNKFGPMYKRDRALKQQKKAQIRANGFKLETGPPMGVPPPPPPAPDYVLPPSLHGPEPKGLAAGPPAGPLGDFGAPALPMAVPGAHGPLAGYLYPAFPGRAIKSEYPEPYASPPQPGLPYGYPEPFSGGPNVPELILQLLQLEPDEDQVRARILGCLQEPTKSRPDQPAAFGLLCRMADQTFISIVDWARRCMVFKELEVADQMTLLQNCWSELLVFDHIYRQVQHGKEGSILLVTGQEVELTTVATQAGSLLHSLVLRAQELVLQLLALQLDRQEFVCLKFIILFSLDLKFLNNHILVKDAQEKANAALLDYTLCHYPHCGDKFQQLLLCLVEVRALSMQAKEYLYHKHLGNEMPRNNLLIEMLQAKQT

Usually EC50 stands for the concentration giving half of the maximal effect. For `Fc1ccc(NC(S)=Nc2ccc(Cl)cc2Cl)cc1`, the IC50 in assay [1] is reported as > 40 µM (not active). At Beta-galactosidase, the EC50 is > 40 µM (inactive).

In the case of `Cc1ccc(Nc2nnc(SCC(O)=C(C#N)c3nc4ccccc4[nH]3)s2)c(C)c1`, the IC50 in [2] was 26.7 µM (active); in assay [3], 8.52 µM (active).

Turning to `C=CCn1c(=O)/c(=C2/Sc3cc(OC)ccc3N2C)s/c1=C1\C(=O)N(CC)C(=S)N1C`, in assay [1], the IC50 is on record as > 40 µM (not active). In addition, the EC50 at Beta-galactosidase is > 40 µM (inactive).

As to `COc1ccc(NN=C2C(=O)CC(C)(C)CC2=O)c(OC)c1`, the IC50 in assay [4] was 27 µM (active); in assay [5] it was > 100 µM (inactive); at Prothrombin it was 27.3 µM (active).

For `CCOc1ccc(CCNC(=O)c2nnn(CC(=O)Nc3ccc(C)cc3)c2N)cc1OCC`, the IC50 in [4] is 13.1 µM (active); in assay [5] it was > 100 µM (inactive); at Prothrombin it was > 100 µM (inactive).

As a reminder, the AC50 is the concentration giving half of the maximal activity seen. For `O=C(CCCNC(=O)c1ccc(Cl)cc1)OCc1cccc(Br)c1`, the half-maximal activity concentration (AC50) in assay [6] was 5.23 µM (active).

On to `CC(=O)c1ccc(NC(=O)c2ccc(-n3cncn3)c([N+](=O)[O-])c2)cc1`, for which the IC50 in assay [7] was 7.16 µM (active); in assay [8] it was 83.3 µM (inactive); in assay [9], 4.12 µM (active).

For `NC(=O)c1ccccc1NCC(=O)c1ccc(F)cc1`, the IC50 in assay [1] was 21.6 µM (not active). The EC50 at Beta-galactosidase is > 40 µM (inactive).

Consider `Cc1cc(Cl)ccc1C(=O)C1CCCN(C(=O)c2cncs2)C1` (configuration not stated), for which the AC50 in assay [6] was 3.92 µM (active).

In the case of `CC(=O)c1cccc(NC(=O)CCc2nc3sc4c(c3c(=O)[nH]2)CCCC4)c1`, the IC50 in assay [4] was 33.9 µM (active); in assay [5], > 100 µM (inactive); on Prothrombin it was 35.5 µM (active).

Take `CCc1ccccc1NC(=O)CSc1nnc([C@@H]2CCCN2C(=O)OC(C)(C)C)o1`: the values for the IC50 (at Steroidogenic factor 1; in assay [10]; in [11]) were 1.86 µM (active), 12 µM (inactive) and 35.9 µM (inactive), respectively.

For the compound `Oc1cccc2ccc(/C=C/c3cccs3)nc12`, the IC50 in assay [1] is 10.3 µM (active). The EC50 was 1.92 µM (active) in assay [12], > 40 µM (inactive) on Beta-galactosidase and 4.2 µM (active) in the assay on Streptococcus.

In the case of `Clc1ccccc1-c1ccc2ncnc(NCc3cccnc3)c2c1`, the IC50 is 14.1 µM (inactive) in assay [7], 83.3 µM (inactive) in assay [8] and 17.1 µM (inactive) in assay [9]. Further, at Cytochrome P450 2C9, the AC50 was 0.794 µM (inconclusive).

Consider `CCNS(=O)(=O)c1ccc(CCC(=O)Nc2cc(Cl)ccc2Oc2ccccc2)cc1`, for which the half-maximal activity concentration (AC50) is 11.6 µM (active) in assay [13]; 40.5 µM (active) in [14]; 2.17 µM (active) in [15]; 12 µM (active) in assay [16]; 5.54 µM (active) in [17].

For `N#CCSc1ccccc1NC(=O)CN1C(=O)C2CC=CCC2C1=O` (configuration not stated), the IC50 on Steroidogenic factor 1 is 2.83 µM (active); in assay [10], 6.85 µM (active); in [11], 35.9 µM (inactive).

With `O=C(N[C@H]1CC[C@H](CCn2cc(-c3ccccn3)nn2)O[C@H]1CO)c1ccccc1`, the AC50 in assay [18] is 78.4 µM (active).

In the case of `CCn1c(-c2ccc(C)cc2)nn(CC(=O)NCCc2ccccc2)c1=S`, the AC50 was 6.95 µM (active) in assay [13]; 51.1 µM (active) in [14]; 4.85 µM (active) in [15]; 5.9 µM (active) with INS1; 7.04 µM (active) in [16]; 8.88 µM (active) in [17].

As for `Cc1[nH]c2ccccc2c1C(=O)C(=O)NCCc1ccc(S(N)(=O)=O)cc1`, the IC50 was 14.8 µM (inactive) in [7], 83.3 µM (inactive) in [8] and 6.63 µM (active) in assay [9].

In the case of `CC1=C(C(=O)c2ccccc2)C(c2ccc(N3CCOCC3)cc2)NC(=O)N1` (configuration not stated), the values for the IC50 (in assay [4]; in [5]; on Prothrombin) were 17.1 µM (active), > 100 µM (inactive) and 15.5 µM (active), respectively.

Take `CCCc1nnc(SCC(=O)Nc2ccc(C(=O)OCC)cc2)o1`: the IC50 on Steroidogenic factor 1 was 1.61 µM (active); in [10] it was 35.9 µM (inactive); in assay [11], 35.9 µM (inactive).

The record behind these values is ChEMBL document CHEMBL1201862, “PubChem BioAssay data set” (2004).
